Measurements published in article PMC9785542, “Discovery of 1-Benzhydryl-Piperazine-Based HDAC Inhibitors with Anti-Breast Cancer Activity: Synthesis, Molecular Modeling, In Vitro and In Vivo Biological Evaluation” (Pharmaceutics, 2022).
Like-named read-outs stand apart in the source and are kept apart here.

What was measured:
[1] = test system: intersegmental blood vessels (ISVs) of Tg(fli1:EGFP) zebrafish embryos; assay: Anti-angiogenic activity in Tg(fli1:EGFP) zebrafish embryos; type: in vivo; conditions: 8b 6.25-50 µM; Suten effective dose 1.56 µM
Method: The inhibitory activity of 8b on angiogenesis was examined using embryos of the transgenic zebrafish Tg(fli1:EGFP) line with GFP-labeled endothelial cells, as previously described. Briefly, embryos at the 6–8 hpf stage were exposed to three non-toxic concentrations and incubated at 28 °C by 48 hpf. At 48 hpf, the treated embryos were anesthetized with 0.02% tricaine, imaged under a fluorescence microscope (Olympus BX51, Applied Imaging Corp., San Jose, CA, USA), and analyzed for the development of intersegmental blood vessels (ISVs). The experiment was performed three times using ten embryos per concentration. ISV lengths were measured using ImageJ program, and expressed as mean value with standard deviation. Inhibitory effect of the applied treatment was determined in relation to the control (DMSO-treated) group, arbitrarily set to 100%.

[2] = molecular target: T1, Human recombinant N-ter-GST-HDAC-6 (Homo sapiens, UniProt Q9UBN7); conditions: read-out: HDAC Inhibition, IC50, HDAC6; profiles of reference HDACi; cited from earlier work
T1 sequence (Q9UBN7 1-1215): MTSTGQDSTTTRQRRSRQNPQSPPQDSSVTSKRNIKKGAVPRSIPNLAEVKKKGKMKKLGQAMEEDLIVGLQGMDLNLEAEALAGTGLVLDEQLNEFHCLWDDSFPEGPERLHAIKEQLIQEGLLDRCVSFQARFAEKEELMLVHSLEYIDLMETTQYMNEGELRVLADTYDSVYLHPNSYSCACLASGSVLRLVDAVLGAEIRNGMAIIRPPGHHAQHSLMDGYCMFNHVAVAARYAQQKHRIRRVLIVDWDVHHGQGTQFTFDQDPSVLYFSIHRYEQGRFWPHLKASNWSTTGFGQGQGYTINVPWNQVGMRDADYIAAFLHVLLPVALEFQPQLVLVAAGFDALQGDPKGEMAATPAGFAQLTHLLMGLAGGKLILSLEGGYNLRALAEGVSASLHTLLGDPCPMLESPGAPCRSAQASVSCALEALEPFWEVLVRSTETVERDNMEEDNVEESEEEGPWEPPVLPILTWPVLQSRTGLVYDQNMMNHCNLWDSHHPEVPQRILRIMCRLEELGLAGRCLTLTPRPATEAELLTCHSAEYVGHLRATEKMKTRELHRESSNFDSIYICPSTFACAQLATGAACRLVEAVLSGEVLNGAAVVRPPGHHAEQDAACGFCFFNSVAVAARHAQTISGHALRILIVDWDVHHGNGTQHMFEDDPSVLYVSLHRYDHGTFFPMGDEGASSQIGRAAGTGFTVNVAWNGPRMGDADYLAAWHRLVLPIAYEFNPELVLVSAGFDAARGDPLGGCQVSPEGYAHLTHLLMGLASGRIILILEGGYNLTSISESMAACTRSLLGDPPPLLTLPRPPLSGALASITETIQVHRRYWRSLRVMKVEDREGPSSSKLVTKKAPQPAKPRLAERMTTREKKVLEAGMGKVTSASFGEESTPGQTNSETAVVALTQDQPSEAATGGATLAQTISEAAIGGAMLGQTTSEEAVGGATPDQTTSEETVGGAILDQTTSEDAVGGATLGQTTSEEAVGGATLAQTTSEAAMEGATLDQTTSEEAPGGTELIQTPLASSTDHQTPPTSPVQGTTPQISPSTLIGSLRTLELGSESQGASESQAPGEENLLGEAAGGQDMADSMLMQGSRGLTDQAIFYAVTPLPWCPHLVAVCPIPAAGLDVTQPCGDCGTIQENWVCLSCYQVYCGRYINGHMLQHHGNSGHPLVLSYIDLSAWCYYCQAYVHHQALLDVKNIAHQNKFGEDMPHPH

[3] = molecular target: T2, Human recombinant C-terminal His-tag-HDAC8 (Homo sapiens, UniProt Q9BY41); parameters: method as in PMID 21832257; conditions: profiles of reference HDACi; read-out: HDAC Inhibition, IC50, HDAC8; cited from earlier work
T2 construct: His (C); purchased BPS Bioscience 50008
T2 sequence (Q9BY41 1-377): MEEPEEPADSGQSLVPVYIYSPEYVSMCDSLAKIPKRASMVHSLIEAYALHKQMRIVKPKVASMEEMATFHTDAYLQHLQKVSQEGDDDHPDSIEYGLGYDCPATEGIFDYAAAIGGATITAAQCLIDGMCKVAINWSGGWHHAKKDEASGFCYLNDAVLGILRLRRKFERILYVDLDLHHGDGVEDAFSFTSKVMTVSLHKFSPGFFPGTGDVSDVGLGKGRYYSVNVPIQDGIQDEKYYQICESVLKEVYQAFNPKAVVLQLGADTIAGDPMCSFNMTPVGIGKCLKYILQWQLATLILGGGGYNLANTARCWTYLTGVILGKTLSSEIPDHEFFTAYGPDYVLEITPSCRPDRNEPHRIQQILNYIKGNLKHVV

[4] = molecular target: T3, Human recombinant C-ter-His-FLAG-HDAC1 (Homo sapiens, UniProt Q13547); parameters: method as in PMID 21832257; conditions: profiles of reference HDACi; read-out: HDAC Inhibition, IC50, HDAC1; cited from earlier work
T3 construct: His (C); FLAG (C); purchased BPS Bioscience 50051

[5] = molecular target: T4, Human recombinant HDAC-3/NcoR2 (Homo sapiens, UniProt O15379); conditions: read-out: HDAC Inhibition, IC50, HDAC3; cited from earlier work
HDAC6 = conditions: Figure 2; cited from earlier work
[6] = molecular target: T1, Human recombinant N-ter-GST-HDAC-6; assay: HDAC-Glo I/II bioluminogenic enzyme assay, HDAC6; type: biochemical; parameters: GST (N); purchased BPS Bioscience 50006
[7] = molecular target: T2, Human recombinant C-terminal His-tag-HDAC8; assay: HDAC-Glo I/II bioluminogenic enzyme assay, HDAC8; type: biochemical; conditions: mean ± SD of three independent experiments; read-out: HDAC Inhibition, IC50 ± SD, HDAC8
MDA-MB-231 cells [8] = assay: Apoptosis assay, Annexin V-FITC/7-AAD flow cytometry; type: cell-based, human; conditions: IC50 concentration
Method: Examined breast cancer cells (MDA-MB-231) were stained with annexin V–fluorescein isothiocyanate/and 7AAD (BD Pharmingen, San Diego, CA, USA), and the samples were prepared following the specifications given by manufacturer. The population of apoptotic cells was analyzed by flow cytometry using a FACS Calibur cytometer and Cell Quest computer software (Becton Dickinson, Heidelberg, Germany).

[9] = molecular target: T3, Human recombinant C-ter-His-FLAG-HDAC1; assay: HDAC-Glo I/II bioluminogenic enzyme assay, HDAC1; type: biochemical; conditions: mean ± SD of three independent experiments; read-out: HDAC Inhibition, IC50 ± SD, HDAC1
MDA-MB-231 cells [10] = assay: Cell viability (MTT) assay, MDA-MB-231; type: cell-based, human; conditions: Homo sapiens, MDA-MB-231, 48 h, read-out: Cytotoxic activity IC50 ± SD, MDA-MB-231
Method: (§1) Human breast adenocarcinoma cells (MCF-7, ATCC® HTB-22™) and triple-negative breast cancer cells (MDA-MB-231, ATCC® HTB-26™) were obtained from the American Type Culture Collection (Rockville, MD, USA). Cells were maintained as a monolayer culture in DMEM:Ham’s 12 (1:1) medium (Sigma-Aldrich, St. Louis, MO, USA) supplemented with penicillin (192 U/mL), streptomycin (200 µg/mL), and 10% of heat-inactivated fetal calf serum (FCS). Cells were grown at 37 °C in 5% CO2 and humidified air atmosphere, by twice weekly subculture.
(§2) Cytotoxic activity of synthesized 1-benzhydryl-piperazine-based HDAC inhibitors was assessed on MDA-MB-231 and MCF-7 cells using an MTT assay. MDA-MB-231 (5 × 10^3 cells/well) and MCF-7 (5 × 10^3 cells/well) were treated with synthesized compounds in six different concentrations (100, 50, 25, 12.5, 6.25, and 3.13 μM), and each concentration was added in five replicates. MTT solution (3-(4,5-dimethylthiazol-2-yl)-2,5-diphenyltetrazolium bromide) (Sigma-Aldrich, St. Louis, USA) was added to each well (20 µL) after 48 h. After 4 h of incubation, 100 μL of 10% SDS was added in each well and incubated at 37 °C. On the next day, the absorbance at 570 nm was recorded. The ratio of absorbance (570 nm) values between treated and control cells multiplied by 100 was used to calculate cell survival (%). The concentration of synthesized HDAC inhibitors that reduced cell viability by 50% was defined as the IC50 value, and was compared to the vehicle control.

[11] = molecular target: T4, Human recombinant HDAC-3/NcoR2; assay: HDAC-Glo I/II bioluminogenic enzyme assay, HDAC3; type: biochemical; parameters: purchased BPS Bioscience 50003; conditions: mean ± SD of three independent experiments; read-out: HDAC Inhibition, IC50 ± SD, HDAC3
MDA-MB-231 tumor spheres = assay: 3D tumor sphere model, MTT and imaging; type: cell-based, human; conditions: for tumor sphere viability: 50 µM, 72 h, formed spheres, MTT
Method: MDA-MB-231 cells were seeded at a cell density of 1000 c/w in 100 μL of DMEM containing 10% FCS in a low-attachment NunclonSphera 96-well ultra-low attachment plate (Thermo Scientific Nunc™, Rochester, NY, USA), to form multicellular tumor spheres, for 4 days. The formation and growth of tumor spheres were examined and imaged with an Olympus CKX53 microscope, using a 10× objective. MDA-MB-231 tumor spheres were treated by carefully adding 50 μL of the medium with fresh nutrient medium for control spheres or with compound-supplemented medium (50 μM) for treated spheres for another 72 h. The cytotoxicity of compounds toward the MDA-MB-231 tumor spheres was investigated by MTT assay.
The formation and growth of tumor spheroids were examined and imaged with an Olympus CKX53 microscope, using 4x objective. The cytotoxicity of compounds toward the MDA-MB-231 tumor spheroids was investigated by MTT assay.

MCF-7 cells = assay: Cell viability (MTT) assay, MCF-7; type: cell-based; conditions: Homo sapiens, MCF7, 48 h, read-out: Cytotoxic activity IC50 ± SD, MCF-7
Method: as §1, §2

MDA-MB-231 cells [12] = assay: Cell cycle analysis, propidium iodide flow cytometry; type: cell-based, human; conditions: 72 h
Method: MDA-MB-231 cells were treated with tested compounds for specified time courses. After treatment, examined cells were washed in cold PBS and incubated for 30 min in 96% ethanol on ice, centrifuged, and incubated with 80 μL RNase A ([…]) and 50 μL propidium iodide (50 μg/mL) for 30 min at 37 °C. The cell cycle was analyzed by FACS Calibur E440 (Becton Dickinson) flow cytometer and Cell Quest software. Results are presented as a percentage of cell cycle phases.

[13] = 5 μM, mean ± standard error of triplicate

T3 sequence (Q13547 whole entry): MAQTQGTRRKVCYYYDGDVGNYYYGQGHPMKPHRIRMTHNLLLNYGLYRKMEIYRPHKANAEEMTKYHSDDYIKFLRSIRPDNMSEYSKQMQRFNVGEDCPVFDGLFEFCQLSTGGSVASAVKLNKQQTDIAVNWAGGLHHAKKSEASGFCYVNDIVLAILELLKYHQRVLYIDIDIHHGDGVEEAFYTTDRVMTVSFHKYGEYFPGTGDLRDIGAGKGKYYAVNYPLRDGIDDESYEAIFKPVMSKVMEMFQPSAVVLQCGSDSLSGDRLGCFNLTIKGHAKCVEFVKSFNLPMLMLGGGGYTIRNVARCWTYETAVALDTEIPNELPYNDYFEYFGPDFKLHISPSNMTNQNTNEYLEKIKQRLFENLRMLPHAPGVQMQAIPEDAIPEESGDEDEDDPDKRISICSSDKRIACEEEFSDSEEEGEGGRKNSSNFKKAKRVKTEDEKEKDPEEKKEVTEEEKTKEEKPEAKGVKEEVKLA
T4 sequence (O15379 whole entry): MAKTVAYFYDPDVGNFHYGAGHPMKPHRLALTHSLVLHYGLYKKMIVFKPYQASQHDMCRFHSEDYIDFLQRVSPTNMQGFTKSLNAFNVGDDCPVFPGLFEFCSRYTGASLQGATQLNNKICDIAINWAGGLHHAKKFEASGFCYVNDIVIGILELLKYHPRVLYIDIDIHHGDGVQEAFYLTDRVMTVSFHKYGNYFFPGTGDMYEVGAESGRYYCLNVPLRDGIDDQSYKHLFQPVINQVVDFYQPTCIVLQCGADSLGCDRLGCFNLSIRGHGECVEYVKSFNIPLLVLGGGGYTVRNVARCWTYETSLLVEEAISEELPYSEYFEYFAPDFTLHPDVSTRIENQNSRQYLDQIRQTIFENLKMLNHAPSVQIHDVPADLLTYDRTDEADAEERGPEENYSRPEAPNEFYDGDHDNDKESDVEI
T4 sequence (Q9Y618 395-489 partner limits assumed): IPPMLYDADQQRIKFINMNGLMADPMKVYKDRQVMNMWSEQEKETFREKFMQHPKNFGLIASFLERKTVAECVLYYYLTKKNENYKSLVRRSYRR

## CCN(CC)CCNC(=O)c1c(C)[nH]c(/C=C2\C(=O)Nc3ccc(F)cc32)c1C [sunitinib-malate, reference compound]
[1]
  toxic response in embryos at anti-angiogenic effective doses: life-threatening pericardial edema

## CCCC(=O)[O-].[Na+] [Sodium butyrate]
[2]
  IC50: > 1000 µM
[3]
  IC50: 10.4 µM
[4]
  IC50: 8.3 µM
[5]
  IC50: 4.8 µM

## O=C(NO)c1cnc(NC2(c3ccccc3)CCC(F)(F)CC2)nc1 [ACY-1083]
HDAC6
  IC50: 0.003 µM

## O=C(CCN1CCN(C(c2ccccc2)c2ccccc2)CC1)NO [Compound 3b, 3-(4-(diphenylmethyl)-piperazin-1-yl)-N-hydroxypropionamide]
[6]; [13]
  inhibition at 5 µM: < 25%

## O=C(CCCCCN1CCN(C(c2ccccc2)c2ccccc2)CC1)NO [Compound 6b, 6-(4-(diphenylmethyl)-piperazin-1-yl)-N-hydroxyhexanamide]
[7]
  IC50: 2.44 ± 0.51 µM
MDA-MB-231 cells [8]; 24 h
  programmed cell death: slight increase
MDA-MB-231 cells [8]; 48 h
  early apoptotic cells: approximately 20%
MDA-MB-231 cells [8]; 72 h
  early apoptotic cells: approximately 20%
[9]
  IC50: 4.73 ± 0.67 µM
MDA-MB-231 cells [10]
  IC50: 33.4 ± 2.79 µM
[11]
  IC50: 1.86 ± 0.09 µM
[6]; [13]
  % HDAC6 Inhibition at 5 μM: 95.6 ± 0.9%
  inhibition at 5 µM: > 90%
[6]; mean ± SD of three independent experiments, read-out: HDAC Inhibition, IC50 ± SD, HDAC6
  IC50: 0.186 ± 0.005 µM
[6]; ratio of IC50 values
  Selectivity Ratio HDAC1/6: 25.4
  Selectivity Ratio HDAC3/6: 10
  Selectivity Ratio HDAC8/6: 13.1
MDA-MB-231 tumor spheres
  tumor sphere viability: mild decrease
MDA-MB-231 tumor spheres; co-culture 4 d, at higher concentrations
  sphere formation: inhibit sphere formation to some extent
MCF-7 cells
  IC50: 84 ± 5.2 µM

## O=C(CCCCN1CCN(C(c2ccccc2)c2ccccc2)CC1)NO [Compound 5b, 5-(4-(diphenylmethyl)-piperazin-1-yl)-N-hydroxypentanamide]
[6]; [13]
  inhibition at 5 µM: < 25%

## CCCC(CCC)C(=O)O [Valproic acid]
[2]
  IC50: > 1000 µM
[4]
  IC50: 660 µM

## CN1CCc2c(c3ccccc3n2Cc2ccc(C(=O)NO)cc2)C1 [tubastatin A, reference compound]
MDA-MB-231 cells [12]
  sub-G1 phase cells: around 30%
HDAC6
  IC50: […]
MDA-MB-231 cells [10]
  IC50: 20.8 ± 2.84 µM
MDA-MB-231 tumor spheres
  tumor sphere viability: mild decrease
MDA-MB-231 tumor spheres; co-culture 50 μM, 4 d in sphere culture conditions
  sphere formation and spheres viability: significantly inhibited
MCF-7 cells
  IC50: 93.3 ± 9.4 µM
